The text below walks through data of patent EP3246029A1, “PHARMACEUTICAL COMBINATION OF NINTEDANIB AND CAPECITABINE FOR THE TREATMENT OF COLORECTAL CANCER” (BOEHRINGER INGELHEIM INTERNATIONAL GMBH, priority 2016, dated 2017).

Each structure is given as a SMILES string.

The conditions of data set [1]: in adults; cited from earlier work.
Data set [2] concerns HT-29 xenografts (human CRC tumor cell line). Nature of the data set: in vivo tumor xenograft experiment, subcutaneous HT-29 xenografts (Example A). Conditions: nude mice, suboptimal doses, 28 days of treatment. On the procedure:
In order to analyse the anti-tumor effects of combining the inhibition of tumor angiogenesis by interfering with the VEGFR, FGFR and PDGFR signalling cascades with the established anti-proliferative treatment modality of capecitabine (Xeloda®) in a xenograft model of CRC the following in vivo experiment is performed. Nude mice carrying established subcutaneous HT-29 xenografts (human CRC tumor cell line) are randomized and treated with either nintedanib or capecitabine alone or with the combination of both drugs. After 28 days of treatment the tumors on the control treated mice reach the endpoint and are in average […] in volume. […] TGI = (1−(Xtreated,final−Xtreated,day1)/(Xcontrol,final−Xcontrol,day1))*100% [formula] where X = mean tumor weigh, final is day 28
The weight gain of the mice in the treatment groups in comparison to the weight of the control mice is reduced, but nevertheless well tolerated.

For data set [3], the system named is SKOV3. The experiment in a line: in vivo anti-tumor efficacy, SKOV3 xenograft model. Particulars: Ovarian, SKOV3, 50mg/kg/d.
Data set [4] deals with Calu-6. Nature of the data set: in vivo anti-tumor efficacy, Calu-6 xenograft model. Conditions: Lung (non-small-cell), Calu-6, 50mg/kg/d.
Data set [5] has as its system Rip-Tag. The experiment in a line: in vivo anti-tumor efficacy, Rip-Tag murine transgenic pancreas model.
For data set [6], the system named is HT-29 large tumors. Nature of the data set: in vivo anti-tumor efficacy, HT-29 large tumors xenograft model. Particulars: Colorectal.
Data set [7] relates to HT-29. The experiment in a line: in vivo anti-tumor efficacy, HT-29 xenograft model. Conditions: Colorectal, HT-29, 100mg/kg/d.
The subject of data set [8] is NCI-H460. Nature of the data set: in vivo anti-tumor efficacy, NCI-H460 xenograft model. Particulars: Lung (non-small-cell), NCI-H460, 25mg/kg/d.
The subject of data set [9] is FaDu. Nature of the data set: in vivo anti-tumor efficacy, FaDu xenograft model. Conditions: Head and neck, 100mg/kg/d.
Data set [10] deals with Caki-1. The experiment in a line: in vivo anti-tumor efficacy, Caki-1 xenograft model. Conditions: Renal, Caki-1, 100mg/kg/d.
For data set [11], the system named is PAC-120. Nature of the data set: in vivo anti-tumor efficacy, PAC-120 xenograft model. Particulars: Prostate (hormone-dependent), PAC-120, 100mg/kg/d.
In data set [12] the test system is GS-9L. Nature of the data set: in vivo anti-tumor efficacy, GS-9L syngeneic rat tumor model. Particulars: Glioblastoma, 50mg/kg/d.

On to `CCCCCOC(=O)Nc1nc(=O)n([C@@H]2O[C@H](C)[C@@H](O)[C@H]2O)cc1F` [capecitabine, 5'-deoxy-5-fluoro-N-[(pentyloxy)carbonyl]-cytidine], for which, in data set [1], the AUC – broadly, concentration integrated over time – is 5960 ng·h/mL; the Cmax (usually the maximum level reached in the sampled fluid or tissue) is 3900 ng/mL; the bioavailability entry was “≈ 100%”. For the same compound, the TGI value in [2] worked out at 50%.

For `COC(=O)c1ccc2c(c1)NC(=O)/C2=C(\Nc1ccc(N(C)C(=O)CN2CCN(C)CC2)cc1)c1ccccc1` [nintedanib, 3-Z-[1-(4-(N-((4-methyl-piperazin-1-yl)-methylcarbonyl)-N-methyl-amino)-anilino)-1-phenyl-methylene]-6-methoxycarbonyl-2-indolinone], the T/C result in data set [3] is listed as “T/C 19% @ 50mg/kg/d”; in data set [4], “T/C 24% @ 50mg/kg/d”; in data set [7] it was “T/C 16% @ 100mg/kg/d”; in [8], “T/C 54% @ 25mg/kg/d”; in data set [9], “T/C 11% @ 100mg/kg/d”; in data set [10] it was “T/C 13% @ 100mg/kg/d”. Also, the results for the T/C result in data set [11] and in [12] were “T/C 34% @ 100mg/kg/d” and “T/C 32% @ 50mg/kg/d”, respectively. The Efficacy result in data set [5] is on record as “interference with tumor formation”; in data set [6] it was “tumor volume reduction”. Besides, in [2], the TGI value is 35%.
